{"source": "patent US7754795B2", "about": "“Coating composition” (3M Innovative Properties Company, priority 2006, dated 2010)", "assay": "Determination of bio-accumulation: urinary clearance pharmacokinetic study in rats, with observation for toxicity and gross necropsy", "format": "in vivo, male Sprague Dawley rats", "settings": "rat, oral gavage", "method": "The perfluorinated and partially fluorinated carboxylates were evaluated for urinary clearance using a pharmacokinetic study in rats. The goal was to measure the total amount of parent compound eliminated via urinary output and estimate the rate of elimination. The study was approved by the IACUC (Institutional Animal Care and Use Committees) and was performed in 3M Company's AAALAC (Association for Assessment and Accreditation of Laboratory Animal Care)-accredited facility.\nThe study utilized male Sprague Dawley rats, 6 to 8 weeks of age, and approximately 200 to 250 g body weight at study onset. The test compounds of table 2 were administered at a dose of 73 micro Moles per kg body weight in rats (N=3 animals per tested compound). All test compounds were prepared in sterile deionized water and given to rats via oral gavage. After test compounds administration, the rats were housed individually in metabolism cages for urine collection: 0 to 6 hours, 6 to 24 hours, 24 to 48 hours and […]. Animals were observed throughout the study for clinical signs of toxicity. Gross necropsy was performed at the termination of each study (96 hours post-dose) with sera and liver samples being retained from each animal.\nThe concentration of the parent compound or metabolites thereof were quantitatively measured via fluorine NMR on each urine sample for each animal at each time point based on internally added standards.", "key": {"[1]": {"settings": "73 micro Moles per kg, no parent compound observed in the urine"}}, "note": "Marks after values point to notes of the source that are not given here."}
{"smiles": "N.O=C(O)COC(F)(F)C(F)OC(F)(F)C(F)(F)C(F)(F)F", "note": "(stereo not drawn) [Compound 16, C3F7—O—CFH—CF2—O—CH2—COONH4]", "values": [{"measurement": "% Recovery (96 h), based on elimination of the major metabolite C3F7—O—CHFCOO−", "setting": "[1]", "value": "65* %"}, {"measurement": "T½ (h), based on elimination of the major metabolite C3F7—O—CHFCOO−", "setting": "[1]", "value": "13* h"}]}
{"smiles": "N.O=C(O)C(F)(F)OC(F)(F)C(F)(F)C(F)(F)OC(F)(F)F", "note": "[Compound 1, CF3—O—(CF2)3—O—CF2—COONH4]", "values": [{"measurement": "T½", "setting": "73 micro Moles per kg body weight, parent compound in urine by fluorine NMR, exponential least squares curve fitting", "value": 10, "unit": "h"}]}
